Measurements as given in patent US20060153781A1, “Repair of dna mutagenic damage” (Novogen Research Pty Ltd, a Corporation, priority 2002, published 2006).
Where “and” joins values, the source holds several entries; their conditions need not be identical. Identical values can stand only once.

What was measured:
Format in all cases: in vivo
CPDs in the epidermis = experiment: Cyclobutane pyrimidine dimer formation in skin biopsies of human volunteers after UV irradiation (immunohistochemistry)
Procedure: (§1) Equol was applied to the skin of five human volunteers immediately after, and at 4 hours and 6 hours post-UV irradiation. A control lotion was also used containing no equol. Twenty-four hours after UV irradiation, skin biopsies were taken and MT production was measured using immunohistochemistry.
The skin biopsies from the five human volunteers from Example 2 were tested for cyclobutane pyrimidine dimer formation using immunohistochemistry.

[1] = system: metallothionein (MT) in the epidermis; experiment: MT production in skin biopsies of human volunteers after UV irradiation (immunohistochemistry); settings: 24 hrs after 2.5 MED SSUV
Procedure: as §1
Approximately half of the cells in the basal epidermis constitutively expressed MT at baseline, whereas almost none of the cells in the more superficial layers of the epidermis expressed MT. At 24 hrs after exposure to 2.5 MED SSUV, there were apparent differences in the expression of MT in the basal layers of the epidermis between sections treated with equol and those treated with DMSO in base lotion (vehicle). In all 5 participants, the expression of MT was higher in the skin treated with equol, with the magnitude of the difference ranging from +4% to +21%.

[2] = system: cyclobutane pyrimidine dimers (CPD) in skin of hairless mice; experiment: Induction of epidermal CPD-positive cells in skin of hairless mice exposed to SSUV (immunohistochemistry); settings: for reduction in the number of CPD compared with control group (vehicle alone): equol lotion 20 μM for 7 days prior and 5 days after SSUV, p<0.05; for CPD + ve cells/linear cm: hairless mice; for reduction of dimers: equol applied immediately after SSUV exposure and continuing for 5 d
From the text: The effect of equol on the induction of CPD was examined in the skin of hairless mice (a standard model for human dermatological investigations) exposed to solar simulated ultraviolet radiation (SSUV). At various time points after SSUV, dorsal skin was excised, fixed for 6 hr in a standard fixing medium (HistoChoice™, Amersco Inc, Solon, Ohio, USA), processed and paraffin-embedded. Pyrimidine dimers were detected immunohistochemically using citric acid antigen retrieval and the H3 anti-pyrimidine dimer antibody. The number of dimer-positive cells was counted manually in 30 fields per mouse, at 40× magnification.

p53 in the epidermis = experiment: P53 staining in skin biopsies of human volunteers following UV irradiation
Procedure: as §1
The skin biopsies from the five human volunteers from Example 2 were tested for P53 staining following UV irradiation.

[3] = 24 hrs after 2.5 MED SSUV, lotion containing equol 200 μM, one row per subject (five volunteers)
[4] = equol 200 μM topical, one row per subject (five volunteers)
[5] = 24 hrs after 2.5 MED SSUV, equol 200 μM topical, one row per subject (five volunteers)

Oc1ccc(C2COc3cc(O)ccc3C2)cc1 (stereo not shown) [equol]
CPD staining, Basal epidermis, % positive cells (CPDs in the epidermis; [3]): 15% and 0% and 10% and 25% (2×)
CPD staining, Basal epidermis, neg (cell count) (CPDs in the epidermis; [3]): 94 and 279 and 181 and 134 and 125
CPD staining, Basal epidermis, pos (cell count) (CPDs in the epidermis; [3]): 16 and 1 and 21 and 44 and 41
CPD staining, Total epidermis, % positive cells (CPDs in the epidermis; [3]): 19% and 5% and 25% and 31% (2×)
CPD staining, Total epidermis, neg (cell count) (CPDs in the epidermis; [3]): 164 and 349 and 279 and 213 and 188
CPD staining, Total epidermis, pos (cell count) (CPDs in the epidermis; [3]): 39 and 18 and 92 and 94 and 85
CPD staining, Upper epidermis, % positive cells (CPDs in the epidermis; [3]): 25% and 20% and 42% and 39% and 41%
CPD staining, Upper epidermis, neg (cell count) (CPDs in the epidermis; [3]): 70 (2×) and 98 and 79 and 63
CPD staining, Upper epidermis, pos (cell count) (CPDs in the epidermis; [3]): 23 and 17 and 71 and 50 and 44
CPD-positive cells, equol lotion vs DMSO in base lotion (vehicle) (in words) (CPDs in the epidermis; 24 hrs after UV exposure, 4 out of 5 participants): proportionally less CPD-positive cells
CPD damage, data from all participants pooled (in words) (CPDs in the epidermis; at 24 hours, pooled participants): moderately lower levels of CPD damage
expression of MT in skin treated with equol vs vehicle (in words) ([1]; all 5 participants): higher
MT staining, Basal epidermis, % positive cells [1, 4]: 76% and 59% and 69% and 77% and 60%
MT staining, Basal epidermis, neg (cell count) [1, 4]: 118 and 188 and 239 and 154 and 157
MT staining, Basal epidermis, pos (cell count) [1, 4]: 380 and 271 and 531 and 522 and 233
MT staining, Total epidermis, % positive cells [1, 4]: 56% and 50% and 63% and 62% and 51%
MT staining, Total epidermis, neg (cell count) [1, 4]: 303 and 270 and 315 and 323 and 225
MT staining, Total epidermis, pos (cell count) [1, 4]: 382 and 271 and 539 and 527 and 234
MT staining, Upper epidermis, % positive cells [1, 4]: 1% (2×) and 0% and 10% and 3%
MT staining, Upper epidermis, neg (cell count) [1, 4]: 185 and 82 and 76 and 169 and 68
MT staining, Upper epidermis, pos (cell count) [1, 4]: 2 and 0 and 8 and 5 and 1
reduction in the number of CPD compared with control group (vehicle alone) ([2]; 1 hour after SSUV): 54%
CPD + ve cells/linear cm ([2]; 1 hr post-SSUV, equol lotion 20 μM daily for 7 days prior to and following 1×3 MED SSUV): 238 ± 22 cells/linear cm
reduction of dimers ([2]; 1 day post-irradiation): 23%
reduction in the number of CPD compared with control group (vehicle alone) ([2]; 24 hours after SSUV): 50%
CPD + ve cells/linear cm ([2]; 24 hr post-SSUV, equol lotion 20 μM daily for 7 days prior to and following 1×3 MED SSUV): 167 ± 17 cells/linear cm
reduction in the number of CPD compared with control group (vehicle alone) ([2]; 48 hours after SSUV): 26%
reduction of dimers ([2]; 2 d post-irradiation, data not shown): 42%
effect on dimer induction and repair (in words) ([2]; equol lotion 20 μM daily for 7 days prior to and following 1×3 MED SSUV): reduce the initial induction of dimers, and to enhance the rate of their repair
p53 staining, Basal epidermis, % positive cells (p53 in the epidermis; [5]): 22% and 8% and 11% and 6% and 26%
p53 staining, Basal epidermis, neg (cell count) (p53 in the epidermis; [5]): 161 and 172 and 250 and 140 and 118
p53 staining, Basal epidermis, pos (cell count) (p53 in the epidermis; [5]): 46 and 15 and 31 and 9 and 41
p53 staining, Total epidermis, % positive cells (p53 in the epidermis; [5]): 26% and 21% and 9% and 4% and 25%
p53 staining, Total epidermis, neg (cell count) (p53 in the epidermis; [5]): 270 and 337 and 500 and 287 and 227
p53 staining, Total epidermis, pos (cell count) (p53 in the epidermis; [5]): 94 and 87 and 50 and 13 and 76
p53 staining, Upper epidermis, % positive cells (p53 in the epidermis; [5]): 31% and 30% and 7% and 3% and 24%
p53 staining, Upper epidermis, neg (cell count) (p53 in the epidermis; [5]): 109 (2×) and 165 and 250 and 147
p53 staining, Upper epidermis, pos (cell count) (p53 in the epidermis; [5]): 48 and 72 and 19 and 4 and 35
percentage of p53 expression in upper and/or basal epidermis (in words) (p53 in the epidermis; 24 hrs after UV exposure, equol treated vs vehicle): reduced in four out of five equol treated subjects
reduction of percentage of p53 staining compared with vehicle controls (p53 in the epidermis; subjects N13PDO and N14GBO, 24 hrs after UV exposure, 'generally'): more than 50%
